The target in one series is T1, human opioid receptor δ (Homo sapiens, UniProt P41143).
T1 construct: host or cells: CHO cells
Put plainly: Opioid receptor function test (Lance Ultra cAMP Kit), δ receptor. The format is cell-based. The conditions noted are these: for EC50: agonistic activity, human δ receptor-expressing CHO cells, cAMP, forskolin; for Emax: maximum reaction relative to SNC 80 taken as 100%. The procedure:
(§1) Functional activities of the compounds of the present invention on the μ, δ, and κ opioid receptors were examined.
(§2) The test was performed by using Lance Ultra cAMP Kit (Perkin-Elmer) according the prescribed method. In the evaluation of the agonistic activity, each human opioid receptor (δ, μ, and κ, accession numbers and catalog numbers are mentioned below)-expressing CHO cells and 10 μM of a test compound were reacted for 30 minutes in the presence of forskolin in an assay buffer (1×HBSS, […], pH 7.4, […] (isobutylmethylxanthine), 7.5% BSA). The cAMP detection reagent included in the kit was then added, and 1 hour afterward, time decomposition fluorometry was performed by using EnVision plate reader (Perkin-Elmer). […] The Emax value was calculated as a ratio of the maximum reaction of the test compound based on the maximum reaction of each control drug, which was taken as 100%.
(§3) • (+)-4-[(αR)-α-(2S,5R)-4-Allyl-2,5-dimethyl-1-piperazinyl]-3-methoxybenzyl]-N,N-diethylbenzamide DAMGO: • [D-Ala^2,N-MePhe^4,Gly-ol]enkephalin U-69593: • (+)-(5α,7α,8β)-N-Methyl-N-[7-(1-pyrrolidinyl)-1-oxaspiro[4.5]dec-8-yl]benzeneacetamide Accession Numbers and Catalog Numbers δ: Catalog No. CT4607, accession No. NM_000911.2 μ: Catalog No. CT4605, accession No. NM_000914 κ: Catalog No. CT4606, accession No. NM_000912 (ChanTest Corporation)

A further series addresses T2, human opioid receptor μ (Homo sapiens, UniProt P35372).
T2 construct: host or cells: CHO cells
Put plainly: Opioid receptor function test (Lance Ultra cAMP Kit), μ receptor. The format is cell-based. The note with it: for EC50: agonistic activity, human μ receptor-expressing CHO cells, cAMP, forskolin; for Emax: maximum reaction relative to DAMGO taken as 100%; for μ Receptor reaction ratio at the maximum concentration (reference value): 10 μM, maximum reaction not attained, DAMGO = 100%. The procedure: as §1, §2, §3

For another series, the target named is T3, human opioid receptor κ (Homo sapiens, UniProt P41145).
T3 construct: host or cells: CHO cells
Put plainly: Opioid receptor function test (Lance Ultra cAMP Kit), κ receptor. The format is cell-based. The note with it: for EC50: agonistic activity, human κ receptor-expressing CHO cells, cAMP, forskolin; for Emax: maximum reaction relative to U-69593 taken as 100%; for κ Receptor reaction ratio at the maximum concentration (reference value): 10 μM, maximum reaction not attained, U-69593 = 100%. The protocol:
as §1, §2, §3

For a further series, the target named is T4, hERG channel (Homo sapiens, UniProt Q12809).
T4 construct: expressed in transfected cells; host or cells: CHO-K1 cells
The series is described as follows: hERG potassium channel inhibition test (Qpatch16 patch clamp, CHO-K1 cells). The note with it: 10 μM; tail current inhibition, hERG-expressing CHO-K1 cells. The format is cell-based. The protocol:
The test was performed with Qpatch16 (Sophion Biosciences Inc.) full automatic patch clamp system using hERG channel-stably expressing CHO-K1 cells. The hERG channel inhibitory action of each test compound was obtained on the basis of inhibitory action against a tail current induced by a test pulse at […] for 1 second applied after retention at +20 mV for 2 seconds. The test compound was dissolved in an extracellular fluid (137 mM NaCl, 4 mM KCl, 1.8 mM CaCl2, 1 mM MgCl2, 10 mM D(+)-glucose, 10 mM HEPES, pH 7.4), and the solution was […] at room temperature for 5 minutes. The inhibition ratio was obtained from the ratio of the tail current value observed after the compound was applied based on the tail current value observed before the compound was applied, which was taken as 100%. Cells were used for the test, where the cells show a peak tail current value not smaller than 100 pA, tail current run-down smaller than 30% of the initial current value, leak current smaller than 50% of the peak value of the tail current, and series resistance value lower than 20 MΩ.

For the next series, the target named is T5, δ opioid receptor (Mus musculus, UniProt P32300).
T5 construct: In the assays for the μ and δ receptors, the mouse cerebrum membrane fraction was used; from tissue; host or cells: mouse cerebrum membrane fraction
Put plainly: Opioid receptor binding test, [3H]DPDPE, mouse cerebrum membrane fraction. The conditions noted are these: read-out: Binding affinity (Ki, nM) δ. The procedure: (§4) Binding affinities of the compounds of the present invention to the μ, δ, and κ opioid receptors were examined.
(§5) According to a previous report (J. Biol. Chem., 2001, 276:15409-15414), mouse cerebrum and guinea pig cerebellum membrane fractions were prepared. As radioactive ligands for the opioid receptors, [^3H]DAMGO (μ opioid receptor), [^3H]DPDPE (δ opioid receptor), and [3H]U69,593 (κ opioid receptor) were used. In the assays for the μ and δ receptors, the mouse cerebrum membrane fraction was used, and in the assay for the κ receptor, guinea pig cerebellum membrane fraction was used. For the nonspecific binding, DAMGO, DPDPE, and U69,593 were used at 1 μM for μ, δ and κ receptors, respectively. Each receptor membrane fraction, radioactive ligand, and a sample at various concentrations were reacted for a predetermined time, and after the B/F separation, amount of radioactivity remained on the filter was measured with a liquid scintillation counter, and binding inhibition ratio of the test compound (IC50 value) was calculated. Ki value was calculated by using the resulting IC50 value in accordance with the following equation. Ki=IC50/(1+L/Kd) L: Concentration of radioactive ligand used Kd: Kd value of radioactive ligand
(§6) Further, selectivity for the δ receptor among the opioid receptors was determined by calculating ratio of the Ki value for μ or κ, and the Ki value for δ (μ/δ or κ/δ).
(§7) • [D-Ala^2,N-MePhe^4, Gly-Ol]enkephalin DPDPE: • [D-Pen^2,D-Pen^5]enkephalin

For a further series, the target named is T6, μ opioid receptor (Mus musculus, UniProt P42866).
T6 construct: In the assays for the μ and δ receptors, the mouse cerebrum membrane fraction was used; from tissue; host or cells: mouse cerebrum membrane fraction
Put plainly: Opioid receptor binding test, [3H]DAMGO, mouse cerebrum membrane fraction. The note with it: ratio of Ki for μ to Ki for δ. The protocol:
as §4, §5, §6, §7

The target in a further series is T7, κ opioid receptor (Cavia porcellus, UniProt P41144).
T7 construct: in the assay for the κ receptor, guinea pig cerebellum membrane fraction was used; from tissue; host or cells: guinea pig cerebellum membrane fraction
Put plainly: Opioid receptor binding test, [3H]U69,593, guinea pig cerebellum membrane fraction. The note with it: ratio of Ki for κ to Ki for δ. The protocol: as §4, §5, §6

Marks after values point to notes of the source that are not given here.

T4 sequence (Q12809 whole entry): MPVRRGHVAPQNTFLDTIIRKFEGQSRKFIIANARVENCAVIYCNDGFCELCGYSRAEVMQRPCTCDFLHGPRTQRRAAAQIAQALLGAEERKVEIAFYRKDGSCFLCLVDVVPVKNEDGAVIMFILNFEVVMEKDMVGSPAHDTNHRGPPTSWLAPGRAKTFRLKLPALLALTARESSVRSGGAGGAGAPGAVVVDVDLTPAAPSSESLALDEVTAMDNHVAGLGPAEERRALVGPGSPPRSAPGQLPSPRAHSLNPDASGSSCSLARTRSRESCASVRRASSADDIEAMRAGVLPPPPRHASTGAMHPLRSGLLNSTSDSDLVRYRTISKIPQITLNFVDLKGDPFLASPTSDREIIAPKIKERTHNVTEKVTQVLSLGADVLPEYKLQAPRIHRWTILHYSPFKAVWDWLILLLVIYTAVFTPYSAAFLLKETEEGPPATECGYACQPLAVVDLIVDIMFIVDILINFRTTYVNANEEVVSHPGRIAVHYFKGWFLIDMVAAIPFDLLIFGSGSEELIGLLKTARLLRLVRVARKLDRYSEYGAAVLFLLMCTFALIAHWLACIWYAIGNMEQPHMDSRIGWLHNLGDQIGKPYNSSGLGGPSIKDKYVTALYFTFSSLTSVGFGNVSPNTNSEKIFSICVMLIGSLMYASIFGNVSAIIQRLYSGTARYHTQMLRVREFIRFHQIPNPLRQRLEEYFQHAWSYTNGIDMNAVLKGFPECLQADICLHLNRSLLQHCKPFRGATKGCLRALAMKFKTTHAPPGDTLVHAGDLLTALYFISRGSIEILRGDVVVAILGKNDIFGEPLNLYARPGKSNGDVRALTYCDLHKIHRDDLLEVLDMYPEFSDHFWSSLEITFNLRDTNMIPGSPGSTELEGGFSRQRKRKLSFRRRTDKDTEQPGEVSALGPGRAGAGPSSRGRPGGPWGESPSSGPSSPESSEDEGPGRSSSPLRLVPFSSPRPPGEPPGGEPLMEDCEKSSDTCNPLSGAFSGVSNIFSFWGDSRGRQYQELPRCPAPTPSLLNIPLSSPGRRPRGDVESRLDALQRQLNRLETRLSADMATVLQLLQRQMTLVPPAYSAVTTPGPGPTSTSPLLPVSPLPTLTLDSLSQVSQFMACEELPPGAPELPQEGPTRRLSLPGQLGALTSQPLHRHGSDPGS
T2 sequence (P35372 whole entry): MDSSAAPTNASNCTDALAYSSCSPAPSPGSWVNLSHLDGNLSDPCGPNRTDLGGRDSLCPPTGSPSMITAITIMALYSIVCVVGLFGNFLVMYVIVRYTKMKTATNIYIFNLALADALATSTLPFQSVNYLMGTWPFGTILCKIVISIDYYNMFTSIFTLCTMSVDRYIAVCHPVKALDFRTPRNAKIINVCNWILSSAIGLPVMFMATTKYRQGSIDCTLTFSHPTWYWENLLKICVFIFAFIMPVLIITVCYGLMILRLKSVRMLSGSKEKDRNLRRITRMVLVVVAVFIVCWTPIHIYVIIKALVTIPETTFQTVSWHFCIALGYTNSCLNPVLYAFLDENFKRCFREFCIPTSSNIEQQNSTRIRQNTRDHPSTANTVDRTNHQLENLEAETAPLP
T3 sequence (P41145 whole entry): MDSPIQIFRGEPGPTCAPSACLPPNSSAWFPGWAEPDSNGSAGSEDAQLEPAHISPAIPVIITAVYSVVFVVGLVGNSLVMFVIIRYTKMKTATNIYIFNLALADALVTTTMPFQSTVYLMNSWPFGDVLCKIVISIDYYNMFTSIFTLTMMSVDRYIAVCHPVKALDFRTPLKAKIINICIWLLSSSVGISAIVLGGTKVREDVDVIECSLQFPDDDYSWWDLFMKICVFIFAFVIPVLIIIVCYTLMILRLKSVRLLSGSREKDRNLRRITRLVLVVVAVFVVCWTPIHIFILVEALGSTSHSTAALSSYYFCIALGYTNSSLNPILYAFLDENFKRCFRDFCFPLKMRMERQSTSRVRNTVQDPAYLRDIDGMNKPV
T1 sequence (P41143 whole entry): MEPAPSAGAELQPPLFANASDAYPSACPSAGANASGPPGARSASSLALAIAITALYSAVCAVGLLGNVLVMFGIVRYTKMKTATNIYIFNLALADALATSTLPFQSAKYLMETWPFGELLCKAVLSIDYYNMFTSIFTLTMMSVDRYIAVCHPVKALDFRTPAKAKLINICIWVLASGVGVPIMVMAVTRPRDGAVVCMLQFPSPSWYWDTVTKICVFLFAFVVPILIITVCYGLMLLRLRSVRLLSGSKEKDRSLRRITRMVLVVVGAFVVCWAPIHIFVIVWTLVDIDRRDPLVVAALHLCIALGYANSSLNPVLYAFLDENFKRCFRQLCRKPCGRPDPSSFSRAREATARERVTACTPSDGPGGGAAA
T5 sequence (P32300 whole entry): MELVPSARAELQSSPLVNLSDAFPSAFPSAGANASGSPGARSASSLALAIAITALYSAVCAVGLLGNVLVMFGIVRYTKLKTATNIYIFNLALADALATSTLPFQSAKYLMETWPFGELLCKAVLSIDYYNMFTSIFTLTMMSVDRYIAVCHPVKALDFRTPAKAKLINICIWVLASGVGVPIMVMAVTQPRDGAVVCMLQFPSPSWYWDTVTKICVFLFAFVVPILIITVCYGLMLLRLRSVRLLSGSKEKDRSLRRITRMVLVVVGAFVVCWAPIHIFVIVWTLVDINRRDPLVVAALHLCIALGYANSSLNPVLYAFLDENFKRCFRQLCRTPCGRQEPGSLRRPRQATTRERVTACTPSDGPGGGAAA
T7 sequence (P41144 whole entry): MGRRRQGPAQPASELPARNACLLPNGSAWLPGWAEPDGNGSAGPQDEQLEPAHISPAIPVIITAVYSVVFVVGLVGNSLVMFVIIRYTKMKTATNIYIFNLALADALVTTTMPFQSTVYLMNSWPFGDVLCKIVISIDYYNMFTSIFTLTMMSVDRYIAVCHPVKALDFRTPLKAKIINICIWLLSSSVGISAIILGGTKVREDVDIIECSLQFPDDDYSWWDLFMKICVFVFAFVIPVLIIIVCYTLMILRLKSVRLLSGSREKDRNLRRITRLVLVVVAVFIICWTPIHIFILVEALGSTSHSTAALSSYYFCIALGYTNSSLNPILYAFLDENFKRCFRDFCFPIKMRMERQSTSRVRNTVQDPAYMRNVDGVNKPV
T6 sequence (P42866 whole entry): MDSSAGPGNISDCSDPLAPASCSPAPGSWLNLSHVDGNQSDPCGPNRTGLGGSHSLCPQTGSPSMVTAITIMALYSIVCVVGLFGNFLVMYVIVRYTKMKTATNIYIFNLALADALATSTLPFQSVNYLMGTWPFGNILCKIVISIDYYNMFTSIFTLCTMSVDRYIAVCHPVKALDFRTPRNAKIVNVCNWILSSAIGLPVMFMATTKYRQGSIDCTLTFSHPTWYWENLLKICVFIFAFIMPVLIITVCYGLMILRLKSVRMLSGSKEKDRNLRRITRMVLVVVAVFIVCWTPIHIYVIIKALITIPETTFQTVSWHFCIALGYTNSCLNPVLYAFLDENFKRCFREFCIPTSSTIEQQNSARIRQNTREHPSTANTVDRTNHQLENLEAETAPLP

`CN1CCC[C@H]1CN1CCC23c4cc(O)ccc4CC1C21CCC2C3[C@@H](CN2C(=O)c2ccccc2)C1` (stereo partly drawn) [Compound 20, [(1S,3aR,5aS,6R,11bR,11cS)-10-hydroxy-14-[[(2S)-11-methylpyrrolidin-2-yl]methyl]-1,2,3a,4,5,6,7,11c-octahydro-3H-6,11b-(epiminoethano)-1,5a-methanonaphtho[1,2-e]indol-3-yl](phenyl)methanone]: the EC50 is < 1 nM at human opioid receptor δ, > 100 nM at human opioid receptor μ and > 10 nM on human opioid receptor κ. The Emax turned out to be 103% at human opioid receptor δ, 54% on human opioid receptor μ and 17% at human opioid receptor κ.

As for `N[C@@H](CO)CN1CC[C@@]23c4cc(O)ccc4C[C@@H]1[C@]21CC[C@@H]2[C@H]3[C@@H](CN2C(=O)c2ccccc2)C1` [Compound 64, [(1S,3aR,5aS,6R,11bR,11cS)-14-[(2R)-2-amino-3-hydroxypropyl]-10-hydroxy-1,2,3a,4,5,6,7,11c-octahydro-3H-6,11b-(epiminoethano)-1,5a-methanonaphtho[1,2-e]indol-3-yl](phenyl)methanone], at human opioid receptor δ, the EC50 was < 1 nM and the Emax is 105%. The “μ Receptor reaction ratio at the maximum concentration (reference value)” value on human opioid receptor μ is reported as “(60)^a %”. The “κ Receptor reaction ratio at the maximum concentration (reference value)” value (“κ Receptor reaction ratio” below) on human opioid receptor κ was “(9.0)^a %”. Further, the “HERG channel inhibitory action” value at hERG channel is listed as <50%.

Turning to `Cc1cc(C)nc(N2C[C@H]3C[C@@]45CC[C@@H]2[C@@H]3[C@@]42CCN(CCCN)[C@@H]5Cc3ccc(O)cc32)n1` [Compound 76, (1S,3aR,5aS,6R,11bR,11cS)-14-(3-aminopropyl)-3-(4,6-dimethylpyrimidin-2-yl)-2,3,3a,4,5,6,7,11c-octahydro-1H-6,11b-(epiminoethano)-1,5a-methanonaphtho[1,2-e]indol-10-ol], the “HERG channel inhibitory action” value on hERG channel is listed as <50%.

For the compound `NCC(O)CN1CC[C@@]23c4cc(O)ccc4C[C@@H]1[C@]21CC[C@@H]2[C@H]3[C@@H](CN2C(=O)c2ccccc2)C1` (single isomer, unassigned) [Compound 62a], the results for the half-maximal effective concentration (EC50) at human opioid receptor δ and at human opioid receptor μ were < 1 nM and > 100 nM, respectively. For the same compound, the Emax on human opioid receptor δ amounted to 108%; at human opioid receptor μ it was 106%. For the same compound, on human opioid receptor κ, the “κ Receptor reaction ratio” value is on record as “(1.7)^a %”.

For `O=C(c1ccccc1)N1C[C@H]2C[C@@]34CC[C@@H]1[C@@H]2[C@@]31CCN(C[C@@H]2CCCN2)[C@@H]4Cc2ccc(O)cc21` [Compound 19, [(1S,3aR,5aS,6R,11bR,11cS)-10-hydroxy-14-[[(2S)-pyrrolidin-2-yl]methyl]-1,2,3a,4,5,6,7,11c-octahydro-3H-6,11b-(epiminoethano)-1,5a-methanonaphtho[1,2-e]indol-3-yl](phenyl)methanone], at human opioid receptor δ, the concentration giving a half-maximal response (EC50) was < 10 nM and the maximal response (Emax) is 106%. For the same compound, on human opioid receptor μ, the concentration for a half-maximal effect (EC50) is > 100 nM and the Emax amounted to 27%. Further, the “κ Receptor reaction ratio” value on human opioid receptor κ was “(2.6)^a %”. Moreover, on hERG channel, the “HERG channel inhibitory action” value is on record as <50%.

On to `Cc1cc(C)nc(N2C[C@H]3C[C@@]45CC[C@@H]2[C@@H]3[C@@]42CCN(CCN(C)C)[C@@H]5Cc3ccc(O)cc32)n1` [Compound 74, (1S,3aR,5aS,6R,11bR,11cS)-14-[2-(dimethylamino)ethyl]-3-(4,6-dimethylpyrimidin-2-yl)-2,3,3a,4,5,6,7,11c-octahydro-1H-6,11b-(epiminoethano)-1,5a-methanonaphtho[1,2-e]indol-10-ol], for which the EC50 at human opioid receptor δ is < 1 nM; on human opioid receptor μ, > 10 nM; at human opioid receptor κ, > 100 nM. In addition, the figures for the Emax at human opioid receptor δ, at human opioid receptor μ and at human opioid receptor κ were 101%, 121% and 46%, respectively.

Turning to `NCCCN1CCC23c4cc(O)ccc4CC1C21CCC2C3[C@@H](CN2C(=O)c2ccccc2)C1` (stereo partly shown) [Compound 41], on human opioid receptor δ, the EC50 was < 1 nM and the Emax worked out at 103%. Also, on human opioid receptor μ, the EC50 was > 100 nM and the Emax was found to be 97%. The “κ Receptor reaction ratio” value at human opioid receptor κ is listed as “(15)^a %”.

As to `C[C@H](N)CN1CCC23c4cc(O)ccc4CC1C21CCC2C3[C@@H](CN2C(=O)c2ccccc2)C1` (stereo partly shown) [Compound 43], on human opioid receptor δ, the 50% effective concentration (EC50) was < 10 nM and the Emax came to 109%. In addition, on human opioid receptor μ, the “μ Receptor reaction ratio at the maximum concentration (reference value)” value was “(8.2)^a %”. Further, the “κ Receptor reaction ratio” value on human opioid receptor κ is “(7.2)^a %”. Also, at δ opioid receptor, the Ki was < 1 nM. In addition, at μ opioid receptor, the “δ-receptor selectivity (Ki value ratio) μ/δ” value was >10. Besides, the “δ-receptor selectivity (Ki value ratio) κ/δ” value on κ opioid receptor is recorded as >10.

Turning to `CN(C)CCN1CCC23c4cc(O)ccc4CC1C21CCC2C3[C@@H](CN2C(=O)c2ccccc2)C1` (stereo partly shown) [Compound 40], the concentration for a half-maximal effect (EC50) on human opioid receptor δ is < 1 nM; on human opioid receptor μ it was > 10 nM; on human opioid receptor κ, > 10 nM. Further, the Emax at human opioid receptor δ was determined as 104%; on human opioid receptor μ it was 92%; at human opioid receptor κ, 22%.

As for `NCCCN1CCC23c4cc(O)ccc4CC1C21CCC2C3[C@@H](CN2C(=O)c2cccc3ccccc23)C1` (stereo partly shown) [Compound 55], at human opioid receptor δ, the EC50 is < 1 nM and the Emax was determined as 102%. On human opioid receptor μ, the EC50 was > 10 nM and the Emax is 82%. In addition, the “κ Receptor reaction ratio” value at human opioid receptor κ is on record as “(4.8)^a %”.

Turning to `O=C(c1ccccc1)N1C[C@H]2CC34CCC1C2C31CCN(C[C@@H]2CCCCN2)C4Cc2ccc(O)cc21` (stereo partly shown) [Compound 47], the Ki on δ opioid receptor was < 10 nM. Further, the “δ-receptor selectivity (Ki value ratio) μ/δ” value on μ opioid receptor was >10. For the same compound, the “δ-receptor selectivity (Ki value ratio) κ/δ” value on κ opioid receptor is on record as >10.

On to `O=C(c1ccccc1)N1C[C@H]2CC34CCC1C2C31CCN(CC2CNC2)C4Cc2ccc(O)cc21` (stereo partly shown) [Compound 49], for which the EC50 is < 1 nM on human opioid receptor δ, > 100 nM on human opioid receptor μ and > 100 nM at human opioid receptor κ. Further, the Emax on human opioid receptor δ came to 108%; at human opioid receptor μ, 105%; on human opioid receptor κ, 28%.

The record behind these values is patent US9624223B2, “Morphinan derivative” (THE KITASATO INSTITUTE, priority 2013, dated 2017).
